We go through 16 compounds from patent publication US7700622B2, “p-38 kinase inhibitors” (Novartis AG, priority 2003, dated 2010).

This experiment addresses T1, p38α kinase (Homo sapiens, UniProt Q16539).
T1 construct: purchased Upstate
Kind of experiment: p38α assay (coupled ADP/NADH oxidation kinase assay). As to conditions: 60 min preincubation with p38α, 0.15 mM ATP, 37° C.; read-out: Activity (p-38) IC50. Details: scale not given here. Type of experiment: biochemical. As for the experimental part: cDNAs of human p38α and β were cloned by PCR. The α and β cDNAs were subcloned into DEST2 plasmid (Gateway, InVitrogen). His6-p38 fusion protein was expressed in E. coli and purified from bacterial lysates by affinity chromatography using Ni^+2-NTA-agarose. His6-p38 protein was activated by incubating with constitutively active MKK6. Active p38 was separated from MKK6 by affinity chromatography. Constitutively active MKK6 was generated in a manner similar to Raingeaud et al. [Mol. Cell.
The p38α assay employed is based on measurement of ADP released in the reaction of interest through NADH oxidation obtained by coupling with pyruvate kinase and lactate dehydrogenase reactions. The assays were performed in 384-well UV-plates. The final volume was 25 uL prepared from the addition of 2.5 uL compound dissolved in 10% DMSO, 17.5 uL of assay buffer and 5 uL of ATP. […] Test compounds are preincubated with p38α for 60 min and the reaction started by addition of ATP to 0.15 mM final concentration. Reaction rates were measured at 340 nm using SpectraMax plate-reading spectrophotometer for 10 min at 37° C. Inhibition data were analyzed by non-linear least squares regression using SigmaPlot.

T1 sequence (Q16539 whole entry): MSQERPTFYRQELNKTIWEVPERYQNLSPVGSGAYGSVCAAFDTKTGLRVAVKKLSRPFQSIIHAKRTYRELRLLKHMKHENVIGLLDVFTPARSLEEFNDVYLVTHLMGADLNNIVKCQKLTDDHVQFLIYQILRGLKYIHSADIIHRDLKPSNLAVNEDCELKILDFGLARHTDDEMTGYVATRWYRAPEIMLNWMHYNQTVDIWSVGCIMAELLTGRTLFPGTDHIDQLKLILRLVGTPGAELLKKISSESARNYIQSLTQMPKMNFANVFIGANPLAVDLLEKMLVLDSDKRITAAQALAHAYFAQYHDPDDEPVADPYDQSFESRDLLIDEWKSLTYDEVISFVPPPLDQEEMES

Regarding `Cc1ccc(C(=O)NC2CC2)cc1-c1ccc2c(=O)n(Cc3ccc(Cl)c(Cl)c3)cnc2c1` [Example 8, N-Cyclopropyl-3-[3-(3,4-dichloro-benzyl)-4-oxo-3,4-dihydro-quinazolin-7-yl]-4-methyl-benzamide], the IC50 – broadly, the midpoint of a concentration-inhibition curve – was under 1 µM. As for `Cc1ccc(C(=O)NC2CC2)cc1-c1ccc(C(=O)c2ccccc2)c(N)c1` [Example 14, 3′-Amino-4′-benzoyl-6-methyl-biphenyl-3-carboxylic acid cyclopropylamide], the figure is under 1 µM; as for `Cc1ccc(C(=O)NC2CC2)cc1-c1ccc2c(-c3ccccc3)nc(=O)[nH]c2c1` [Example 15, N-Cyclopropyl-4-methyl-3-(2-oxo-4-phenyl-1,2-dihydro-quinazolin-7-yl)-benzamide], under 1 µM; as for `COc1ccc(CNC(=O)c2cnc(-c3cc(C(=O)NC4CC4)ccc3C)nc2N)cc1` [Example 13, N-(4-Methoxybenzyl)-2-[(5-cyclopropylaminocarbonyl)-2-methylphenyl]-4-aminopyrimidine-5-carboxyamide], under 1 µM.

Take `CC(=O)Nc1cc(-c2cc(C(=O)NC3CC3)ccc2C)ccc1C(=O)c1ccccc1` [Example 17, 3′-Acetylamino4′-benzoyl-6-methyl-biphenyl-3-carboxylic acid cyclopropylamide]: the IC50 was under 1 µM. Regarding `Cc1ccc(C(=O)NC2CC2)cc1-c1ccc(-c2nnco2)cn1` [Example 4, N-Cyclopropyl-4-methyl-3-(5-[1,3,4]oxadiazol-2-yl-pyridin-2-yl)-benzamide], the IC50 was under 1 µM.

In the case of `Cc1ccc(C(=O)NC2CC2)cc1-c1ccc2c(=O)n(Cc3ccccc3)cnc2c1` [Example 6, 3-(3-Benzyl-4-oxo-3,4-dihydro-quinazolin-7-yl)-N-cyclopropyl-4-methyl-benzamide], the IC50 was under 1 µM. For the compound `Cc1ccc(C(=O)NC2CC2)cc1-c1ccc2c(=O)n(Cc3c(Cl)cccc3Cl)cnc2c1` [Example 7, N-Cyclopropyl-3-[3-(2,6-dichloro-benzyl)-4-oxo-3,4-dihydro-quinazolin-7-yl]-4-methyl-benzamide], the IC50 was under 1 µM. The figure for `Cc1nnc(-c2ccc(-c3cc(C(=O)NC4CC4)ccc3C)nc2)o1` [Example 5, N-Cyclopropyl-4-methyl-3-[5-(5-methyl-[1,3,4]oxadiazol-2-yl)-pyridin-2-yl]-benzamide] is under 1 µM; for `Cc1ccc(C(=O)NC2CC2)cc1-c1ccc2c(=O)[nH]cnc2c1` [Example 10, N-Cyclopropyl-4-methyl-3-(4-oxo-3,4-dihydro-quinazolin-7-yl)-benzamide] it is under 1 µM. Take `COc1ccc(Cn2cnc3cc(-c4cc(C(=O)NC5CC5)ccc4C)ccc3c2=O)cc1` [Example 9, N-Cyclopropyl-3-[3-(4-methoxy-benzyl)-4-oxo-3,4-dihydro-quinazolin-7-yl]-4-methyl-benzamide]: the IC50 was under 1 µM. Consider `Cc1ccc(C(=O)NC2CC2)cc1-c1ccc(-c2nnco2)cc1` [Example 1, 6-Methyl4′-[1,3,4]oxadiazol-2-yl-biphenyl-3-carboxylic acid cyclopropylamide], for which the half-maximal inhibitory concentration (IC50) was under 1 µM. As for `COc1ccc(CNC(=O)c2ccc(-c3cc(C(=O)NC4CC4)ccc3C)nc2)cc1` [Example 12, 6-(5-Cyclopropylcarbamoyl-2-methyl-phenyl)-N-(4-methoxy-benzyl)-nicotinamide], the IC50 was under 1 µM.

On to `Cc1ccc(C(=O)NC2CC2)cc1-c1ccc(C(=O)c2ccccc2)cc1` [Example 11, 4′-Benzoyl-6-methyl-biphenyl-3-carboxylic acid cyclopropylamide], for which the IC50 is under 1 µM. With `Cc1ccc(C(=O)NC2CC2)cc1-c1ccc2c(-c3ccccc3)ncnc2c1` [Example 16, N-Cyclopropyl-4-methyl-3-(4-phenyl-quinazolin-7-yl)-benzamide], the IC50 is under 1 µM. The figure for `Cc1ccc(C(=O)NC2CC2)cc1-c1ccc(-c2nnc[nH]2)cc1` [Example 3, 6-Methyl4′-(4H-[1,2,4]triazol-3-yl)-biphenyl-3-carboxylic acid cyclopropylamide] is under 1 µM.
